In brackets after ≈: the same amount, converted by molar mass.
Experiments:
laser-induced CNV [1] = assay: Laser-induced mouse CNV model, topical eye drops; type: in vivo; settings: mouse, topical
Procedure: (§1) Laser Lesion Induction Protocol
(§2) Six to eight week-old C57/B6 mice (B&K Laboratories) and adult Norway-Brown rats (Harlan Laboratories) were anaesthetized with an intraperitoneal injection of a mixture of 50 mg/kg ketamine and 0.5 mg/kg medetomidine. The pupils were dilated with 2.5% phenylephrine hydrochloride and 1% tropicamide. Four photocoagulation lesions were delivered with a krypton red laser (Mice: 250 mW, 0.01 s, 75 μm, Rats: 200 mW, 0.01 s, 75 μm, IRIS Medical 810 nm Oculight Slx laser) between the retinal vessels in a peripapillary distribution at a distance of 1-2 disc-diameters in each eye. Only laser lesions with a subretinal bubble at the time of treatment were included in the study. […] Animals were culled on either day 4 or day 14 and eyes were either unfixed for retinal dissection and protein extraction, or fixed and enucleated and choroids stained for isolectin-B4 and examined.
We performed a dose response trial investigating SRPIN340 topical eye drops. SRPIN340 was dissolved in a previously described drug delivery vehicle (Doukas et al., 2008) and administered twice daily. Fourteen days following laser insult choroids were fixed and flatmounted for isolectin staining and retinae were extracted for RNA analysis.

[2] = system: SRSF1 phosphorylation in PC3 prostate cancer cells; assay: Inhibition of SRSF1 phosphorylation induced by EGF activation; type: cell-based; settings: 10 μM, 1 hr, 10 nM EGF
Procedure: Inhibition of SRSF1 Phosphorylation Induced by EGF Activation. […] Cells were lysed, and subjected to immunoblotting using an antibody to phosphorylated SR proteins (MAB104) and an antibody to tubulin as a loading control. Intensity was measured for SRSF1 and SRSF5 bands using ImageJ Intensity. Phosphorylation is calculated as the increase in intensity of the band over untreated relative to that for EGF with vehicle.

laser-induced CNV [3] = assay: Laser-induced mouse CNV model, intravitreal injection; type: in vivo; settings: discussion summary, route not stated
Procedure: as §1, §2

[4] = system: VEGF165b protein in RPE cells; assay: Western blotting for VEGF165b in RPE cells; type: cell-based, human; settings: 100 nM, FIG. 9B
Procedure: Protein was extracted from RPE cells treated for 48 hours with SPHINXes and subjected to western blotting for VEGF165b using anti-VEGF165b antibody as previously described (Gammons et al Invest. Ophthahnol. Vis. Sci. 54(9) 6052-6062).

[5] = system: VEGF165 mRNA isoforms in primary RPE cells; assay: RT-PCR for VEGF165 / VEGF165b mRNA in primary RPE cells; type: cell-based, human; settings: 100 nM, FIG. 9A
Procedure: ID NO: 5)). […] Cells were treated with […]6 and 7 and the PCR repeated.

## CN(C)CCN1CCN(c2ccc(C(F)(F)F)cc2NC(=O)c2ccc(-c3ccncc3)o2)CC1 [SPHINX7]
laser-induced CNV [1]
  CNV formation, eye drop: significantly inhibited CNV formation
laser-induced CNV [1]; FIG. 11, read-out: IC50 for inhibition of CNV as an eye drop
  IC50: 0.225 µg/mL (≈ 0.462 µM)
[2]
  SRSF1 phosphorylation induced by EGF: inhibit SRSF1 phosphorylation
laser-induced CNV [3]
  area of neovascular lesions, mouse laser-induced CNV model: achieving significance
[4]
  VEGF165b at protein level: increase VEGF165b
[5]
  amount of VEGF165 at RNA level: reduce the amount of VEGF165
